How the values were obtained:
Jarid1A = biological target: T1, Jarid1A (Homo sapiens, UniProt P29375); assay: Jarid1A in vitro enzyme inhibition assay (TR-FRET); assay type: biochemical
T1 construct: purchased BPS Bioscience 50110
T1 sequence (P29375 1-1090): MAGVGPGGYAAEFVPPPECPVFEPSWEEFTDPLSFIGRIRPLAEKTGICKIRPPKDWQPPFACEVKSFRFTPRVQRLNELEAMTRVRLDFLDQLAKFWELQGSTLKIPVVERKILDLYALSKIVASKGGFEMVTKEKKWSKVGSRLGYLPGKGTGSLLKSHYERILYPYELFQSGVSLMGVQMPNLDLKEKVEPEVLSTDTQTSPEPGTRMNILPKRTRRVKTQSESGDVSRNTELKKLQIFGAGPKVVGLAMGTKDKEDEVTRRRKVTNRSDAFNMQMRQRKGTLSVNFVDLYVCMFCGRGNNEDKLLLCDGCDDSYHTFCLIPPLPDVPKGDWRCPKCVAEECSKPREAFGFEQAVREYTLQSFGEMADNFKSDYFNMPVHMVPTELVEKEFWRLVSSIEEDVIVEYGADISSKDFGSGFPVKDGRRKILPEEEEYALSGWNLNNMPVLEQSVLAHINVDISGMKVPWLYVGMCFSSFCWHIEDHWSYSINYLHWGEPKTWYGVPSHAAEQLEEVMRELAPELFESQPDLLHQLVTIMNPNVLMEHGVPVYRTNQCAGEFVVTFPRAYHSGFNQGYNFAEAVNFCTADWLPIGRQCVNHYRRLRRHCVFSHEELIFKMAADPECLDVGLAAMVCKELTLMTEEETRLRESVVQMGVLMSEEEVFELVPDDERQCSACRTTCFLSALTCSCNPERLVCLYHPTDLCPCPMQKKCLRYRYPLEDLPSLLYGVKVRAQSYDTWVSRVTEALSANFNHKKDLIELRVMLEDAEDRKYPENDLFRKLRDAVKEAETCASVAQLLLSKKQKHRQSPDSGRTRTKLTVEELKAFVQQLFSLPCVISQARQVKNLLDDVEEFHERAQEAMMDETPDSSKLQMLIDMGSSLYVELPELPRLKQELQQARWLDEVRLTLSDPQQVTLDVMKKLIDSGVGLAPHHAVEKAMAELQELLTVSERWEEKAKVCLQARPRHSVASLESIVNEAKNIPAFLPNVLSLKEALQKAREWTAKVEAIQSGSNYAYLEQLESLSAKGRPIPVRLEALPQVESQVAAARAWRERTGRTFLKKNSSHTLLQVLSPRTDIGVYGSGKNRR
How it was run: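 Demethylation of 300 nM biotin-H3K4me3 peptide by 1 nM baculovirus-expressed Jarid1A (aa 1–1090) with 2 μM α-ketoglutarate, Fe(II) and ascorbate, pH 7.3, 30 min at room temperature. Stopped with EDTA; H3K4me1-2 product detected by TR-FRET (Eu anti-H3K4me1-2/streptavidin-APC). IC50 fitted from 665/615 ratio over 11-point dilutions.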

KDM5A/B = assay: In vitro cell-based assay: immuno-blot quantification of tri-methyl H3K4 in ZR-75-1 breast cancer cells; conditions: 72 hours, tri-methyl H3K4 level relative to GAPDH, percent of DMSO, read-out: Cellular IC50
How it was run: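 ZR-75-1 breast cancer cells treated 72 h with 11-point compound dilutions (1250 μM to 10 nM). H3K4me3 quantified by infrared immunoblot densitometry, normalized to GAPDH and expressed as percent of DMSO control; relative IC50 from curve fit.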

Row | IC50 (Jarid1A) [nM] | IC50 (KDM5A/B) [nM] | SMILES
1 | 100 to 1000 | – | CC(=O)N(C)CCOc1nc(O)c2ccncc2n1 [Example 28, N-[2-(4-hydroxypyrido[3,4-d]pyrimidin-2-yl)oxyethyl]-N-methylacetamide]
2 | 100 to 1000 | – | Oc1nc(OCCOCc2ccccc2)nc2cnccc12 [Example 30, 2-(2-phenylmethoxyethoxy)pyrido[3,4-d]pyrimidin-4-ol]
3 | ≤ 100 | – | O=C(NCCOc1nc(O)c2ccncc2n1)c1ccccc1 [Example 31, N-[2-(4-hydroxypyrido[3,4-d]pyrimidin-2-yl)oxyethyl]benzamide]
4 | ≤ 100 | > 10000 | Oc1nc(Oc2ccccc2)nc2cnccc12 [Example 34, 2-phenoxypyrido[3,4-d]pyrimidin-4-ol]
5 | 1000 to 10000 | – | Oc1nc(OCc2ccccc2C(F)(F)F)nc2cnccc12 [Example 177, 2-{[2-(trifluoromethyl)phenyl]methoxy}pyrido[3,4-d]pyrimidin-4-ol]
6 | 1000 to 10000 | – | Oc1nc(OCc2ccccc2F)nc2cnccc12 [Example 178, 2-[(2-fluorophenyl)methoxy]pyrido[3,4-d]pyrimidin-4-ol]
7 | 1000 to 10000 | – | Oc1nc(OCc2cccc(F)c2)nc2cnccc12 [Example 179, 2-[(3-fluorophenyl)methoxy]pyrido[3,4-d]pyrimidin-4-ol]
8 | 1000 to 10000 | – | Oc1nc(OCc2cccc3ccccc23)nc2cnccc12 [Example 184, 2-(naphthalen-1-ylmethoxy)pyrido[3,4-d]pyrimidin-4-ol]
9 | 1000 to 10000 | – | Oc1nc(OCc2ccccc2-c2ccccc2)nc2cnccc12 [Example 185, 2-[(2-phenylphenyl)methoxy]pyrido[3,4-d]pyrimidin-4-ol]
10 | 1000 to 10000 | – | Oc1nc(OCc2cccc(-c3ccccc3)c2)nc2cnccc12 [Example 186, 2-[(3-phenylphenyl)methoxy]pyrido[3,4-d]pyrimidin-4-ol]
11 | 1000 to 10000 | – | Oc1nc(OCc2ccc3ccccc3c2)nc2cnccc12 [Example 187, 2-(naphthalen-2-ylmethoxy)pyrido[3,4-d]pyrimidin-4-ol]
12 | 100 to 1000 | – | Oc1nc(OCC2CCc3ccccc32)nc2cnccc12 (stereo not drawn) [Example 190, 2-(2,3-dihydro-1H-inden-1-ylmethoxy)pyrido[3,4-d]pyrimidin-4-ol]
13 | 100 to 1000 | – | Oc1nc(OCc2coc3ccccc23)nc2cnccc12 [Example 193, 2-(1-benzofuran-3-ylmethoxy)pyrido[3,4-d]pyrimidin-4-ol]
14 | 1000 to 10000 | – | Oc1nc(OCC2COc3ccccc32)nc2cnccc12 (stereo not drawn) [Example 194, 2-(2,3-dihydro-1-benzofuran-3-ylmethoxy)pyrido[3,4-d]pyrimidin-4-ol]
15 | 100 to 1000 | – | Oc1nc(OCC2CCOc3ccccc32)nc2cnccc12 (stereo not drawn) [Example 195, 2-(3,4-dihydro-2H-1-benzopyran-4-ylmethoxy)pyrido[3,4-d]pyrimidin-4-ol]

The remaining lines, values behind:

Row | SMILES | IC50 (Jarid1A) [nM] | IC50 (KDM5A/B) [nM]
16 | CC(C)Oc1nc(O)c2ccncc2n1 [Example 1, 2-propan-2-yloxy-3H-pyrido[3,4-d]pyrimidin-4-one] | 100 to 1000 | –
17 | CCOc1nc(O)c2ccncc2n1 [Example 2, 2-ethoxypyrido[3,4-d]pyrimidin-4-ol] | ≤ 100 | > 10000
18 | Oc1nc(OCCOCC(F)(F)F)nc2cnccc12 [Example 23, 2-[2-(2,2,2-trifluoroethoxy)ethoxy]pyrido[3,4-d]pyrimidin-4-ol] | 100 to 1000 | –
19 | CC(C)(O)CCOc1nc(O)c2ccncc2n1 [Example 24, 2-(3-hydroxy-3-methylbutoxy)pyrido[3,4-d]pyrimidin-4-ol] | ≤ 100 | > 10000
20 | CC(CO)COc1nc(O)c2ccncc2n1 (stereo not drawn) [Example 25, 2-(3-hydroxy-2-methylpropoxy)pyrido[3,4-d]pyrimidin-4-ol] | 100 to 1000 | –
21 | Oc1nc(OCC2CCCO2)nc2cnccc12 (stereo not drawn) [Example 26, 2-(oxolan-2-ylmethoxy)pyrido[3,4-d]pyrimidin-4-ol] | 100 to 1000 | –
22 | Oc1nc(OCC2CCOC2)nc2cnccc12 (stereo not drawn) [Example 27, 2-(oxolan-3-ylmethoxy)pyrido[3,4-d]pyrimidin-4-ol] | 100 to 1000 | –
23 | CC(C)OCCOc1nc(O)c2ccncc2n1 [Example 29, 2-(2-propan-2-yloxyethoxy)pyrido[3,4-d]pyrimidin-4-ol] | 100 to 1000 | –
24 | N#Cc1cccc(COc2nc(O)c3ccncc3n2)c1 [Example 32, 3-[(4-hydroxypyrido[3,4-d]pyrimidin-2-yl)oxymethyl]benzonitrile] | 100 to 1000 | –
25 | Cn1ccc(COc2nc(O)c3ccncc3n2)n1 [Example 33, 2-[(1-methylpyrazol-3-yl)methoxy]pyrido[3,4-d]pyrimidin-4-ol] | 1000 to 10000 | –
26 | Oc1nc(OCc2ccc(F)cc2)nc2cnccc12 [Example 180, 2-[(4-fluorophenyl)methoxy]pyrido[3,4-d]pyrimidin-4-ol] | 1000 to 10000 | –
27 | Oc1nc(OCc2cccc(F)c2F)nc2cnccc12 [Example 181, 2-[(2,3-difluorophenyl)methoxy]pyrido[3,4-d]pyrimidin-4-ol] | 1000 to 10000 | –
28 | Oc1nc(OCc2cc(F)ccc2F)nc2cnccc12 [Example 182, 2-[(2,5-difluorophenyl)methoxy]pyrido[3,4-d]pyrimidin-4-ol] | 1000 to 10000 | –
29 | Oc1nc(OCc2c(F)cccc2F)nc2cnccc12 [Example 183, 2-[(2,6-difluorophenyl)methoxy]pyrido[3,4-d]pyrimidin-4-ol] | 1000 to 10000 | –
30 | Oc1nc(OCC2CCCc3ccccc32)nc2cnccc12 (stereo not drawn) [Example 188, 2-(1,2,3,4-tetrahydronaphthalen-1-ylmethoxy)pyrido[3,4-d]pyrimidin-4-ol] | 100 to 1000 | –
31 | Oc1nc(OC2Cc3ccccc3C2)nc2cnccc12 [Example 189, 2-(2,3-dihydro-1H-inden-2-yloxy)pyrido[3,4-d]pyrimidin-4-ol] | 100 to 1000 | –
32 | Oc1nc(OCC2CCc3ccccc3C2)nc2cnccc12 (stereo not drawn) [Example 191, 2-(1,2,3,4-tetrahydronaphthalen-2-ylmethoxy)pyrido[3,4-d]pyrimidin-4-ol] | 100 to 1000 | –
33 | Oc1nc(OC2CCc3ccccc32)nc2cnccc12 (stereo not drawn) [Example 192, 2-(2,3-dihydro-1H-inden-1-yloxy)pyrido[3,4-d]pyrimidin-4-ol] | 1000 to 10000 | –
34 | Oc1nc(OC2CCCc3ccccc32)nc2cnccc12 (stereo not drawn) [Example 196, 2-(1,2,3,4-tetrahydronaphthalen-1-yloxy)pyrido[3,4-d]pyrimidin-4-ol] | 1000 to 10000 | –
35 | Oc1nc(OC2CCOc3ccccc32)nc2cnccc12 (stereo not drawn) [Example 197, 2-(3,4-dihydro-2H-1-benzopyran-4-yloxy)pyrido[3,4-d]pyrimidin-4-ol] | 100 to 1000 | –
36 | Cn1cnc(-c2nccc3c(=O)[nH]cnc23)c1 [Example 198, 8-(1-methylimidazol-4-yl)-3H-pyrido[3,4-d]pyrimidin-4-one] | 100 to 1000 | –

From patent US10526327B2, “Histone demethylase inhibitors” (CELGENE QUANTICEL RESEARCH, INC., priority 2013, dated 2020)
